Where two headings read alike, the source gives them in different places.
Tests used:
[1] = test system: HCT116-MTAP-KO (MTAP null) cells; assay: Proliferation inhibition of HCT116 MTAP-KO cells in vitro (CellTiter Glo, 6 days); assay type: cell-based; conditions: 144 h, read-out: Cell proliferation inhibition rate HCT116-MTAP null IC50 (nm)
HCT116 MTAP WT cells = assay: Proliferation inhibition of HCT116 cells in vitro (CellTiter Glo, 6 days); assay type: cell-based; conditions: Homo sapiens, HCT-116, 144 h, read-out: Cell proliferation inhibition rate HCT116 MTAP WT IC50 (nm)
PRMT5 MTA = PRMT5 MTA (Homo sapiens (Human), UniProt O14744); assay: PRMT5 inhibitory activity assay in vitro, enzyme solution with MTA ([3H]-SAM Flashplate); assay type: biochemical; conditions: MTA 2.0 um; read-out: Enzyme activity inhibition rate PRMT5 MTA (2.0 um) IC50 (nm)
PRMT5 MTA, sequence (O14744 whole entry, looked up): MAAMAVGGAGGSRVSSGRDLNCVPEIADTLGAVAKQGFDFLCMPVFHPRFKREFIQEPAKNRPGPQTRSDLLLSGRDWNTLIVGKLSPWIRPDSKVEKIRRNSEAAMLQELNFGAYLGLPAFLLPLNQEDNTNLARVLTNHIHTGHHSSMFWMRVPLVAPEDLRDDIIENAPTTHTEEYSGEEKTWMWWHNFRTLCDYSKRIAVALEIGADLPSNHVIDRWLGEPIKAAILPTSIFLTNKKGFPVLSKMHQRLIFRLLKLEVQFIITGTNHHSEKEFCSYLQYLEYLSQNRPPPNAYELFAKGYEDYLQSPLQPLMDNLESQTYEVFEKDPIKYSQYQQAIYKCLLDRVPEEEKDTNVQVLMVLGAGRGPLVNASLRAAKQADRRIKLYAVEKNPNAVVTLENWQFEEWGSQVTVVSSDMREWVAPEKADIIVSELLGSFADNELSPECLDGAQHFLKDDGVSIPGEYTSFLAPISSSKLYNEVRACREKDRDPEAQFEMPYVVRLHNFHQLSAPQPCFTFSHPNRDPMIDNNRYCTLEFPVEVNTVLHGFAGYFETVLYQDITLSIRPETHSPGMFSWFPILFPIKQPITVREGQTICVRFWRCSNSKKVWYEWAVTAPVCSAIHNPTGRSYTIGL
PRMT5 MTA, sequence (Q9BQA1 whole entry partner, looked up): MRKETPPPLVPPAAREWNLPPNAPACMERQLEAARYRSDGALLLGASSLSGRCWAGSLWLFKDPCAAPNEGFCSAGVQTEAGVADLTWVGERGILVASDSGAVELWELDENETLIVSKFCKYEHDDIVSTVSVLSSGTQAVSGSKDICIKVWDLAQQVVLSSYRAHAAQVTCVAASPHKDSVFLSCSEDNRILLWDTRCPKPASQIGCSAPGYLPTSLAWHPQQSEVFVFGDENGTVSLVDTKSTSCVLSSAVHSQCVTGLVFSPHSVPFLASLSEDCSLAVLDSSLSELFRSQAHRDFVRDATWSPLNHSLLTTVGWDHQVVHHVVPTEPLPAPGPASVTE
Text: Biological Test Example 1 PRMT5 Inhibitory Activity Assay In Vitro
PRMT5 (Active Motiv, catalog number 31921), [^3H]—SAM (Perkin Elmer, catalog number NET155V001MC), SAM (Sigma, catalog number A7007), MTA (Sigma, catalog number D5011), SAH (Sigma, catalog number A9384), 384-well plate (Perkin Elmer, catalog number 6007299), Echo 550 (manufacturer: Labcyte, model: Echo 550), 384-well Flashplate (manufacturer: Perkin Elmer, model: SMP410A001PK)
• (1) 1× Assay buffer (modified Tris buffer) was configured. • (2) Dilute compound: the compound was dissolved in 100% DMSO and the compound solution was added to a 384-well plate using Echo 550. • (3) Configure enzyme solution: PRMT5 was added to 1× assay buffer to prepare enzyme solution 1; PRMT5 and MTA was added to 1× assay buffer to prepare enzyme solution 2. • (4) Configure substrate solution: peptide segments and [3H]—SAM was added to 1× assay buffer. • (5) 15 μL of enzyme solution was added to the 384-well plate, and 15 μL of 1× assay buffer was added to the negative control well, and incubated at room temperature for 30 minutes. • (6) 15 μL of substrate solution was added to each well, and incubated at room temperature for 90 minutes. • (7) Configure termination reaction solution: pre-cooled SAM was added to 1× assay buffer. • (8) 10 μL of termination reaction solution was added to each well to terminate the reaction. • (9) 25 μL/well of the mixed solution was transferred to Flashplate and incubated for 1 hour at room temperature. • (10) the Flashplate three was washed times with dH2O+0.1% Tween-20 solution. • (11) the radiometric values was readed with Microbeta.
• (1) The raw data were converted to % inhibition according to Equation 1.
%inhibition=(Max−Signal)/(Max−Min)*100 Equation 1: • (2) the % inhibition data were entered into XL-Fit Equation 2 to obtain IC50 value:
Y=Bottom+(Top−Bottom)/(1+(IC50/X)[…]) Equation 2: • wherein, Y is the % inhibition, and X is the concentration of the compound.

IC50 (HCT116 MTAP WT cells) | IC50 ([1]; HCT116-MTAP null) | SMILES | IC50 [1] | IC50 (PRMT5 MTA)
1 to 10 µM | 0.1 to 1 µM | Cc1ncn2c1c(N)nc1ccc(C(=O)N(Cc3cn4cc(C(F)(F)F)ccc4n3)c3cnn(C)c3)cc12 [Example 293] | – | –
1 to 10 µM | < 0.1 µM | COC1CCCC1N(Cc1cn2cc(C(F)(F)F)ccc2n1)C(=O)c1ccc2nc(N)c3c(C)ncn3c2c1 (stereo not shown) [Example 294] | – | –
1 to 10 µM | 0.1 to 1 µM | Cc1ncn2c1c(N)nc1ccc(C(=O)N(CC(C)C)C(C)c3cn4cc(C(F)(F)F)ccc4n3)cc12 (stereo not shown) [Example 296] | – | –
1 to 10 µM | < 0.1 µM | Cc1ncn2c1c(N)nc1ccc(C(=O)N(Cc3cn4ccccc4n3)CC(C)C)cc12 [Example 297] | – | –
1 to 10 µM | 0.1 to 1 µM | CCN(C(=O)c1ccc2nc(N)c3c(C)ncn3c2c1)C(C)c1cn2ccccc2n1 (stereo not shown) [Example 298] | – | –
1 to 10 µM | < 0.1 µM | Cc1ncn2c1c(N)nc1ccc(C(=O)N(Cc3cn4cc(C(F)(F)F)ccc4n3)CC(C)C)cc12 [Example 299] | – | –
1 to 10 µM | < 0.1 µM | Cc1ncc2c(N)nc3ccc(C(=O)N(Cc4cn5cc(C(F)(F)F)ccc5n4)c4c(F)cnn4C)cc3n12 [Example 300] | – | –
0.1 to 1 µM | < 0.1 µM | Cc1ncc2c(N)nc3cnc(C(=O)N(Cc4cn5cc(C(F)(F)F)ccc5n4)c4c(F)cnn4C)cc3n12 [Example 302] | – | –
0.1 to 1 µM | < 0.1 µM | Cc1ncc2c(N)nc3cc(F)c(C(=O)N(Cc4cn5cc(C(F)F)ccc5n4)c4c(F)cnn4C)cc3n12 [Example 303] | – | –
0.1 to 1 µM | < 0.1 µM | CC(c1ncccn1)N(Cc1nc2cnccc2s1)C(=O)c1ccc2nc(N)c3c(c2c1)COC3 (stereo not shown) [Example 304, 4-Amino-N-(1-(pyrimidin-2-yl)ethyl)-N-(thiazolo[4,5-c]pyridin-2-ylmethyl)-1,3-dihydrofurano[3,4-c]quinolin-8-carboxamide] | – | –
1 to 10 µM | < 0.1 µM | Cc1nn(C)cc1N(Cc1cn2cc(C(F)(F)F)ccc2n1)C(=O)c1ccc2nc(N)c3c(c2c1)CO[C@@H]3C [Example 305, (3R)-4-Amino-N-(1,3-dimethylpyrazol-4-yl)-3-methyl-N-[[6-(trifluoromethyl)imidazo[1,2-a]pyridin-2-yl]methyl]-1,3-dihydrofurano[3,4-c]quinolin-8-carboxamide] | – | –
1 to 10 µM | < 0.1 µM | Cc1nn(C)cc1N(Cc1cn2cc(C(F)(F)F)ccc2n1)C(=O)c1ccc2nc(N)c3c(c2c1)COC3C (stereo not shown) [Example 313, 4-Amino-N-(1,3-dimethylpyrazol-4-yl)-3-methyl-N-[[6-(trifluoromethyl)imidazolo[1,2-a]pyridin-2-yl]methyl]-1,3-dihydrofurano[3,4-c]quinolin-8-carboxamide] | – | –

Continued, compound first:

SMILES | IC50 (HCT116 MTAP WT cells) | IC50 ([1]; HCT116-MTAP null) | IC50 [1] | IC50 (PRMT5 MTA)
CC(c1ncccn1)N(Cc1cn2ccccc2n1)C(=O)c1ccc2nc(N)c3c(c2c1)CCC3 (stereo not shown) [Example 1, 4-Amino-N-(pyrazolo[1,5-a]pyridin-2-ylmethyl)-N-(1-(pyrimidin-2-yl)ethyl)-2,3-dihydro-1H-cyclopentadieno[c]quinolin-8-carboxamide] | 1 to 10 µM | – | < 0.1 µM | 0.0051 µM
CCN(Cc1cn2ccccc2n1)C(=O)c1cc2c(cc1F)nc(N)c1cnn(C)c12 [Example 2] | 1 to 10 µM | – | < 0.1 µM | 0.003 µM
CC(C)CN(Cc1cn2cc(C(F)(F)F)ccc2n1)C(=O)c1ccc2nc(N)c3cnn(C)c3c2c1 [Example 4] | 1 to 10 µM | – | < 0.1 µM | 0.0017 µM
COCC(C1CC1)N(Cc1nc2ccccc2[nH]1)C(=O)c1ccc2nc(N)c(C)cc2c1 (stereo not shown) [Example 127] | 1 to 10 µM | – | < 0.1 µM | 0.0037 µM
CC(C)CN(Cc1nc2ccc(C(F)(F)F)cc2[nH]1)C(=O)c1ccc2nc(N)c3cnn(C)c3c2c1 [Example 132] | 1 to 10 µM | – | < 0.1 µM | 0.0044 µM
COCC(C1CC1)N(Cc1nc2ccccc2s1)C(=O)c1ccc2nc(N)c3c(c2c1)CCC3 (stereo not shown) [Example 147] | 1 to 10 µM | – | 0.1 to 1 µM | 0.0029 µM
Cc1cc2cc(C(=O)N(Cc3nc4ccccc4s3)C34CC(C3)C4)ccc2nc1N [Example 148] | – | – | – | 0.0026 µM
CCN(Cc1cn2cc(OC)ccc2n1)C(=O)c1cc2c(cc1F)nc(N)c1c(C)ncn12 [Example 263] | 1 to 10 µM | 0.1 to 1 µM | – | –
Cc1ncn2c1c(N)nc1cc(F)c(C(=O)N(CCC#N)Cc3cn4ccccc4n3)cc12 [Example 264] | 1 to 10 µM | 0.1 to 1 µM | – | –
CCN(Cc1cn2cc(F)ccc2n1)C(=O)c1cc2c(cc1F)nc(N)c1c(C)ncn12 [Example 267] | 1 to 10 µM | < 0.1 µM | – | –
CCN(Cc1cn2ccccc2n1)C(=O)c1cc2c(cc1C)nc(N)c1cnc(C)n12 [Example 268] | 1 to 10 µM | 0.1 to 1 µM | – | –
Cc1ncn2c1c(N)nc1cc(F)c(C(=O)N(Cc3nc4ccc(C(F)(F)F)cc4[nH]3)CC(C)C)cc12 [Example 269] | 1 to 10 µM | 0.1 to 1 µM | – | –
COCC(C)N(Cc1cn2ccccc2n1)C(=O)c1cc2c(cc1F)nc(N)c1c(C)ncn12 (stereo not shown) [Example 271] | 1 to 10 µM | < 0.1 µM | – | –
CCN(Cc1cn2c(C)cccc2n1)C(=O)c1cc2c(cc1F)nc(N)c1c(C)ncn12 [Example 272] | 1 to 10 µM | 0.1 to 1 µM | – | –
COC1CC(N(Cc2cn3ccccc3n2)C(=O)c2cc3c(cc2F)nc(N)c2c(C)ncn23)C1 (stereo not shown) [Example 273] | 1 to 10 µM | < 0.1 µM | – | –
CCN(Cc1cn2ccccc2n1)C(=O)c1cc2c(cc1F)nc(N)c1c(C)ncn12 [Example 274] | 1 to 10 µM | 0.1 to 1 µM | – | –
Cc1ncc2c(N)nc3cc(F)c(C(=O)N(Cc4nc5ccc(C(F)(F)F)cc5[nH]4)CC(C)C)cc3n12 [Example 276] | 1 to 10 µM | 0.1 to 1 µM | – | –
Cc1ncn2c1c(N)nc1cc(F)c(C(=O)N(Cc3cn4ccccc4n3)CC(C)C)cc12 [Example 277] | 1 to 10 µM | < 0.1 µM | – | –
COC1CCCC1N(Cc1cn2ccccc2n1)C(=O)c1cc2c(cc1F)nc(N)c1c(C)ncn12 (stereo not shown) [Example 278] | 1 to 10 µM | < 0.1 µM | – | –
CCN(Cc1cn2ccccc2n1)C(=O)c1ccc2nc(N)c3ncc(C)n3c2c1 [Example 279] | 1 to 10 µM | 0.1 to 1 µM | – | –
Cc1ncn2c1c(N)nc1cc(F)c(C(=O)N(Cc3cn4cc(C(F)(F)F)ccc4n3)C3CCC3O)cc12 (stereo not shown) [Example 280] | 1 to 10 µM | 0.1 to 1 µM | – | –
Cc1ncn2c1c(N)nc1cc(F)c(C(=O)N(Cc3cn4cc(C(F)(F)F)ccc4n3)CC(C)C)cc12 [Example 282] | 1 to 10 µM | < 0.1 µM | – | –
COC1CCC1N(Cc1cn2cc(C(F)(F)F)ccc2n1)C(=O)c1cc2c(cc1F)nc(N)c1c(C)ncn12 (stereo not shown) [Example 284] | 0.1 to 1 µM | < 0.1 µM | – | –
COCC(C)N(Cc1cn2cc(C(F)(F)F)ccc2n1)C(=O)c1cc2c(cc1F)nc(N)c1c(C)ncn12 (stereo not shown) [Example 285, 4-Amino-7-fluoro-N-(1-methoxypropan-2-yl)-3-methyl-N-((6-(trifluoromethyl)imidazolo[1,2-a]pyridin-2-yl)methyl)imidazo[1,5-a]quinoxalin-8-carboxamide] | 0.1 to 1 µM | < 0.1 µM | – | –
COC1CCC1N(Cc1cn2cc(C(F)(F)F)ccc2n1)C(=O)c1ccc2nc(N)c3c(C)ncn3c2c1 (stereo not shown) [Example 286] | 1 to 10 µM | < 0.1 µM | – | –
COCC(C)N(Cc1cn2cc(C(F)(F)F)ccc2n1)C(=O)c1ccc2nc(N)c3c(C)ncn3c2c1 (stereo not shown) [Example 288] | 1 to 10 µM | < 0.1 µM | – | –
Cc1cnn2c1c(N)nc1ccc(C(=O)N(Cc3cn4cc(C(F)(F)F)ccc4n3)CC(C)C)cc12 [Example 290] | 1 to 10 µM | < 0.1 µM | – | –
Cc1ncn2c1c(N)nc1ccc(C(=O)N(c3cnn(C)c3)C(C)c3cn4cc(C(F)(F)F)ccc4n3)cc12 (stereo not shown) [Example 292] | 1 to 10 µM | 0.1 to 1 µM | – | –
